Laboratory results taken from patent US5952511A, “Indolin-2-one derivatives” (Chugai Seiyaku Kabushiki Kaisha, priority 1993, dated 1999).

Columns and labels:
[1] = tested on: gastric acid secretion; test: Inhibitory Activity on Gastric Acid Secretion in Pylorus Ligated Rats (Test Example 2); type: in vivo, rat (Sprague-Dawley, male); details: Rattus norvegicus, intraduodenal, i.d., 4 h
Description: Inhibitory Activity on Gastric Acid Secretion in Pyrolus Ligated Rats
Sprague-Dawley male rats weighing about 200 g were deprived of food for 24 hours while allowed water ad libitum. The abdomen was opened under anesthesia with ethyl ether, the pyrolus ligated, and the abdomen closed. The rats were deprived of food and water for 4 hours until they were surcrified with ethyl ether. The stomach was removed, and gastric juice was collected and measured. The gastric juice was centrifuged at 3000 rpm, and the supernatant was titrated up to pH 7.0 with 0.1N NaOH solution to obtain the acidity of the gastric juice. The amount of the gastric acid output was calculated by multiplying the gastric juice volume by the acidity, and the percent inhibition of acid secretion was obtained according to the following equation. A test compound, suspended in a 3% gum arabic solution, was administered intraduodenally at a dose of 2 ml/kg immediately after the pyrolus ligation.
Inhibition (%)=[(Average amount of gastric acid output in control group--Average amount of gastric acid output in test group)/Average amount of gastric acid secreted […]]×100

[2] = biological target: T1, gastrin receptors (guinea pig gastric glands) (Cavia porcellus, UniProt H0VZC5); test: Gastrin Receptor Binding Test in Guinea Pig Gastric Glands (Test Example 1); design: species or system guinea pig (Hartley, male); details: inhibition of specific 125I-gastrin I human binding (22.5 pM), 25° C., 45 min
T1 construct: The gastric glands were isolated from the tissue with a pipette; from tissue; host or cells: isolated gastric glands from gastric mucosa of Hartley male guinea pigs
T1 sequence (H0VZC5 1-426): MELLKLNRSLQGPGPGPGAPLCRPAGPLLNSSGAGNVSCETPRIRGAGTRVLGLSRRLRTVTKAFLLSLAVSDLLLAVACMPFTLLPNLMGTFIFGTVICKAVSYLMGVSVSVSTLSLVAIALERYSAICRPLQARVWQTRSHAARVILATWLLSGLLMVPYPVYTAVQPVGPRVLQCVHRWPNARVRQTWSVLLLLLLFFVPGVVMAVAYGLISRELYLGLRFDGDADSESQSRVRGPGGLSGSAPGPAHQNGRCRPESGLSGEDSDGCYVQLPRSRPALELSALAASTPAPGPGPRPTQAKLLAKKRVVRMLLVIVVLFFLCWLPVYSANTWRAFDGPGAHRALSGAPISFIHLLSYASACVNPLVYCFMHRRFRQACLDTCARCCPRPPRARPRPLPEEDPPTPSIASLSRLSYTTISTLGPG
Description: Gastrin Receptor Binding Test in Guinea Pig Gastric Glands
Preparation of Gastric Glands:
Guinea pig gastric glands were prepared according to the method of Chang, et al., Biochem. Biophys. Res. Commun., 134, 895 (1986). The gastric mucosa of a Hartley male guinea pig was peeled off. After washing, the mucosa was minced with scissors in buffer A (Eagle's MEM containing 2 mM L-glutamine and 25 mM HEPES; pH 7.4). After washing, the minced tissue was incubated in buffer A containing 0.025% collagenase, 0.01% soy bean trypsin inhibitor, and 0.1% BSA at 37° C. for 60 minutes under 95% O2 and 5% CO2. The gastric glands were isolated from the tissue with a pipette, washed twice with buffer A, and filtered through a mesh. Then, the gastric glands were obtained by centrifugation.
Guinea pig gastric glands were resuspended in buffer B (Hank's solution containing 10 mM HEPES and 0.2% BSA; pH 7.4) (10 ml of buffer B per guinea pig).
To 200 μl of the suspension containing the resuspended isolated gastric glands were added 20 μl of ^125 I-gastrin I human (final concentration: 22.5 pM). Then, 10 μl of a test compound or a solvent (for total binding) or 10 μM Pentagastrin (for nonspecific binding), and buffer B was added there to make a total volume of 1 ml. The reaction mixture was incubated at 25° C. for 45 minutes and then centrifuged at 12000 g. The supernatant was removed by suction, and the radioactivity of the isolated gastric glands was measured with a gamma-counter.
The specific binding of gastrin to gastrin receptors was obtained from a difference between the total binding and the nonspecific binding. The IC50 of the test compound in inhibition of specific binding was calculated.

Row | IC50 [2] | Structure (SMILES) | inhibition in vivo at 10 mg/kg [1] | inhibition in vivo at 3 mg/kg ([1]; 3 mg/kg)
1 | 2.6 nM | CCOC(CN1C(=O)C(CC(=O)Nc2ccc(Cl)cc2)(NC(=O)Nc2ccc(Cl)cc2)c2ccccc21)OCC (racemic) [Example 168, (RS)-3-((4-Chlorophenyl)aminocarbonylmethyl)-3-(N'-(4-chlorophenyl)ureido)-1-(2,2-diethoxyethyl)indolin-2-one] | 61% | 
2 | 1.9 nM | CCOC(CN1C(=O)C(CC(=O)Nc2ccc(C)cc2)(NC(=O)Nc2ccc(OC)cc2)c2ccccc21)OCC (racemic) [Example 79, (RS)-1-(2,2-Diethoxyethyl)-3-(N'-(4-methoxyphenyl)ureido)-3-((4-methylphenyl)aminocarbonylmethyl)indolin-2-one] | 47% | 
3 | 1 nM | CCOC(CN1C(=O)C(CC(=O)Nc2ccc(F)cc2)(NC(=O)Nc2cccc(OC)c2)c2ccccc21)OCC (racemic) [Example 154, (RS)-1-(2,2-Diethoxyethyl)-3-((4-fluorophenyl)aminocarbonylmethyl)-3-(N'-(3-methoxyphenyl)ureido)indolin-2-one] | 59% | 
4 | 5.8 nM | CCOC(CN1C(=O)C(CC(=O)Nc2ccc(C)cc2)(NC(=O)Nc2cccc(Cl)c2)c2ccccc21)OCC (racemic) [Example 89, (RS)-3-(N'-(3-Chlorophenyl)ureido)-1-(2,2-diethoxyethyl)-3-((4-methylphenyl)aminocarbonylmethyl)indolin-2-one] | 65% | 
5 | 0.35 nM | CCOC(CN1C(=O)C(CC(=O)Nc2ccc(C)cc2)(NC(=O)Nc2cccc(OC)c2)c2ccccc21)OCC (single isomer, unassigned; (+)) [Example 188, (+)-1-(2,2-Diethoxyethyl)-3-(4-methylphenyl)aminocarbonylmethyl-3-(N'-(3-methoxyphenyl)ureido)indolin-2-one] |  | 76%
6 | 2.1 nM | CCOC(CN1C(=O)C(CC(=O)Nc2cccc(C)c2)(NC(=O)Nc2cccc(OC)c2)c2ccccc21)OCC (racemic) [Example 152, (RS)-1-(2,2-Diethoxyethyl)-3-(N'-(3-methoxyphenyl)ureido)-3-((3-methylphenyl)aminocarbonylmethyl)indolin-2-one] | 64% | 
7 | 0.93 nM | CCOC(CN1C(=O)C(CC(=O)Nc2ccc(Cl)cc2)(NC(=O)Nc2cccc(OC)c2)c2ccccc21)OCC (racemic) [Example 149, (RS)-3-((4-Chlorophenyl)aminocarbonylmethyl)-1-(2,2-diethoxyethyl)-3-(N'-(3-methoxyphenyl)ureido)indolin-2-one] | 69% | 
8 | 5.1 nM | CCOC(CN1C(=O)C(CC(=O)Nc2ccc(F)cc2)(NC(=O)Nc2ccc(F)cc2)c2ccccc21)OCC (racemic) [Example 170, (RS)-1-(2,2-Diethoxyethyl)-3-((4-fluorophenyl)aminocarbonylmethyl)-3-(N'-(4-fluorophenyl)ureido)indolin-2-one] | 63% | 
9 | 2.2 nM | CCOC(CN1C(=O)C(NC(=O)Nc2ccc(F)cc2)(NC(=O)Nc2ccc(F)cc2)c2ccccc21)OCC [Example 14, 1-(2,2-Diethoxyethyl)-3,3-bis(N'-(4-fluorophenyl)ureido)indolin-2-one] | 49% | 

More lines, now with the values behind:

Row | Structure (SMILES) | IC50 [2] | inhibition in vivo at 10 mg/kg [1] | inhibition in vivo at 3 mg/kg ([1]; 3 mg/kg)
10 | CCOC(CN1C(=O)C(CC(=O)Nc2ccc(C)cc2)(NC(=O)Nc2cccc(C)c2)c2ccccc21)OCC (racemic) [Example 81, (RS)-1-(2,2-Diethoxyethyl)-3-((4-methylphenyl)aminocarbonylmethyl)-3-(N'-(3-methylphenyl)ureido)indolin-2-one] | 1.6 nM | 59% | 
11 | CCOC(CN1C(=O)C(CC(=O)Nc2ccc(OC)cc2)(NC(=O)Nc2cccc(OC)c2)c2ccccc21)OCC (racemic) [Example 148, (RS)-1-(2,2-Diethoxyethyl)-3-((4-methoxyphenyl)aminocarbonylmethyl)-3-(N'-(3-methoxyphenyl)ureido)indolin-2-one] | 1.1 nM | 63% | 
12 | CCOC(CN1C(=O)C(CC(=O)Nc2ccc(C)cc2)(NC(=O)Nc2ccc(F)cc2)c2ccccc21)OCC (racemic) [Example 82, (RS)-1-(2,2-Diethoxyethyl)-3-(N'-(4-fluorophenyl)ureido)-3-((4-methylphenyl)aminocarbonylmethyl)indolin-2-one] | 6.2 nM | 56% | 
13 | CCOC(CN1C(=O)C(CC(=O)Nc2ncccn2)(NC(=O)Nc2ccc(C)cc2)c2ccccc21)OCC (racemic) [Example 132, (RS)-1-(2,2-Diethoxyethyl)-3-(N'-(4-methylphenyl)ureido)-3-((2-pyrimidinyl)aminocarbonylmethyl)indolin-2-one] | 8.9 nM | 52% | 
14 | CCOC(CN1C(=O)C(CC(=O)Nc2ccc(N(C)C(=O)C(F)(F)F)cc2)(NC(=O)Nc2ccc(C)cc2)c2ccccc21)OCC (racemic) [Example 131, (RS)-1-(2,2-Diethoxyethyl) 3-((4-(N-trifluoromethylcarbonyl-N-methylamino)phenyl)aminocarbonylmethyl)-3-(N'-(4-methylphenyl)ureido)indolin-2-one] | 23 nM | 65% | 
15 | CCOC(CN1C(=O)C(CC(=O)Nc2ccc(C)cc2)(NC(=O)Nc2ccccc2)c2ccccc21)OCC (racemic) [Example 84, (RS)-1-(2,2-Diethoxyethyl)-3-((4-methylphenyl)aminocarbonylmethyl)-3-(N'-phenylureido)indolin-2-one] | 3.4 nM | 68% | 
16 | CCOC(CN1C(=O)C(NC(=O)Nc2ccc(C)cc2)(NC(=O)Nc2ccc(C)cc2)c2ccccc21)OCC [Example 10, 1-(2,2-Diethoxyethyl)-3,3-bis(N'-(4-methylphenyl)ureido)indolin-2-one] | 2.5 nM | 59% | 
17 | CCOC(CN1C(=O)C(CC(=O)Nc2ccc(N)cc2)(NC(=O)Nc2ccc(C)cc2)c2ccccc21)OCC (racemic) [Example 125, (RS)-3-((4-Aminophenyl)aminocarbonylmethy)-1-(2,2-diethoxyethyl)-3-(N'-(4-methylphenyl)ureido)indolin-2-one] | 2.5 nM | 54% | 
18 | CCOC(CN1C(=O)C(CC(=O)Nc2ccc(C)cc2)(NC(=O)Nc2cccc(F)c2)c2ccccc21)OCC (racemic) [Example 94, (RS)-1-(2,2-Diethoxyethyl)-3-(N'-(3-fluorophenyl)ureido)-3-((4-methylphenyl)aminocarbonylmethyl)indolin-2-one] | 3.5 nM | 70% | 
19 | CCOC(CN1C(=O)C(CC(=O)Nc2ccc(Cl)cc2)(NC(=O)Nc2ccc(OC)cc2)c2ccccc21)OCC (racemic) [Example 169, (RS)-3-(-(4-Chlorophenyl)aminocarbonylmethyl)-1-(2,2-diethoxyethyl)-3-(N'-(4-methoxyphenyl)ureido)indolin-2-one] | 1.9 nM | 52% | 
20 | CCOC(CN1C(=O)C(CC(=O)Nc2ccc(C)cc2)(NC(=O)Nc2cccc(OC)c2)c2ccccc21)OCC (racemic) [Example 85, (RS)-1-(2,2-Diethoxyethyl)-3-(N'-(3-methoxyphenyl)ureido)-3-((4-methylphenyl)aminocarbonylmethyl)indolin-2-one] | 1.2 nM | 72% | 
